# Counter-ions that a name gives are not always drawn.
# Target: ROCK2 (Homo sapiens, UniProt O75116)
# Test: ROCK2 kinase inhibition assay (LABCHIP 3000 Reader, FITC peptide substrate);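 also: rho kinase reaction read by separating phosphorylated from unphosphorylated peptide on chip, with inhibition of kinase activity computed per concentration across a dose-response series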
# Conditions: not given
# Sequence of ROCK2 (O75116 whole entry, species assumed): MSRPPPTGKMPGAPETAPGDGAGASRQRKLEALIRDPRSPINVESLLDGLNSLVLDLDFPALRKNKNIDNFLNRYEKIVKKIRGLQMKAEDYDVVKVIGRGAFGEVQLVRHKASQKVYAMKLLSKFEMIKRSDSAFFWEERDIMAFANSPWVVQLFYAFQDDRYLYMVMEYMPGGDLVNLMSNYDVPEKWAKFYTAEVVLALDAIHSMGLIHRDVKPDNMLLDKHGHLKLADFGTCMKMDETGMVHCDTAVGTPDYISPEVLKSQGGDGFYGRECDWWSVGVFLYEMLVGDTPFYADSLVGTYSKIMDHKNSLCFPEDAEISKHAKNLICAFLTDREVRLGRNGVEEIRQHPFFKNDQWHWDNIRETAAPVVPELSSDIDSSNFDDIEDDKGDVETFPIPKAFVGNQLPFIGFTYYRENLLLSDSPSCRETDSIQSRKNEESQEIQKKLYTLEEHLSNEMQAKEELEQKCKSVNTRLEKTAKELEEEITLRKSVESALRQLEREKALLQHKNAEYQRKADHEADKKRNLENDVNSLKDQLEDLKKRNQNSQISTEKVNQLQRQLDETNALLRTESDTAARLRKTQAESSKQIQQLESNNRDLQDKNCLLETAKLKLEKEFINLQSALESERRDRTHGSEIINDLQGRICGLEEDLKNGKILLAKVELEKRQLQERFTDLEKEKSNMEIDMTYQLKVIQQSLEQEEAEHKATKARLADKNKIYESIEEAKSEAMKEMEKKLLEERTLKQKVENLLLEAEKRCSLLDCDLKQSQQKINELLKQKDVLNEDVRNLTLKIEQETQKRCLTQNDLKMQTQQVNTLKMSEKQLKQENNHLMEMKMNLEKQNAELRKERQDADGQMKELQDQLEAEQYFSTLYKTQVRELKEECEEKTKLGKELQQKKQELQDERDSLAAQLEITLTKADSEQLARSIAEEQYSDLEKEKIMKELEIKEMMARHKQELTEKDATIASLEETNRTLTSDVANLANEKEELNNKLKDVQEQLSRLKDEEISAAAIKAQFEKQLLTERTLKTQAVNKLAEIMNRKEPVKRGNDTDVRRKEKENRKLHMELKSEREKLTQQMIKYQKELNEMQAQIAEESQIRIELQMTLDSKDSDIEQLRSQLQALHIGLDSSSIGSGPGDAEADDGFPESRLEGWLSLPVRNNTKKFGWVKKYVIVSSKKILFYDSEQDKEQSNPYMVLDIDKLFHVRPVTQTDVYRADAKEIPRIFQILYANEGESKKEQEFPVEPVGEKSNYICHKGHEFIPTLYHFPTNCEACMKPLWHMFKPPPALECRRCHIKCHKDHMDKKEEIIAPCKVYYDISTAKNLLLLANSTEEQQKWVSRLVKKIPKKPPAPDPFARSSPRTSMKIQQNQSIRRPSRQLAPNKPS
row,Compound,IC50 [nM]
1,"N#Cc1ccc(F)c(C(=O)N[C@H]2CC3(C2)C[C@H](Oc2ncccc2C(N)=O)C3)c1 (stereo partly drawn) [Example 155, 2-(((aR)-6-(5-cyano-2-fluorobenzamido)spiro[3.3]heptan-2-yl)oxy)nicotinamide]",250 to 2500
2,"CC(C)(O)COc1ccc2c(C(=O)NC3CC4(C3)CC(Oc3cc(CCCN5CCOCC5)ccc3C(N)=O)C4)cnn2c1 (centres unmarked) [Example 264, N-(6-(2-carbamoyl-5-(3-morpholinopropyl)phenoxy)spiro[3.3]heptan-2-yl)-6-(2-hydroxy-2-methylpropoxy)pyrazolo[1,5-a]pyridine-3-carboxamide]",50 to 250
3,"NC(=O)c1cccnc1O[C@H]1CC2(C[C@H](NC(=O)c3cnn4c(CCC(F)(F)F)c(OCCC(F)(F)F)ccc34)C2)C1 (stereo partly drawn) [Example 115, N-((aR)-6-((3-carbamoylpyrdin-2-yl)oxy)spiro[3.3]heptan-2-yl)-6-(3,3,3-trifluoropropoxy)-7-(3,3,3-trifluoropropyl) pyrazolo[1,5-a]pyridine-3-carboxamdie, trifluoroacetate]",5 to 50
4,"NC(=O)c1cccnc1O[C@H]1CC2(C[C@H](NC(=O)c3cnc4cc(N5CCS(=O)(=O)CC5)ccn34)C2)C1 (stereo partly drawn) [Example 362, N-((aR)-6-((3-carbamoylpyridin-2-yl)oxy)spiro[3.3]heptan-2-yl)-7-(1,1-dioxidothiomorpholino)imidazo[1,2-a]pyridine-3-carboxamide]",50 to 250
5,"CC(C)NS(=O)(=O)c1ccccc1C(=O)N[C@H]1CC2(C1)C[C@H](Oc1ncccc1C(N)=O)C2 (stereo partly drawn) [Example 138, 2-(((aR)-6-(2-(N-isopropylsulfamoyl)benzamido)spiro[3.3]heptan-2-yl)oxy)nicotinamide, trifluoroacetate]",250 to 2500
6,"NC(=O)c1cccnc1O[C@H]1CC2(C[C@H](NC(=O)c3cnn4cc(OCC(O)C(F)(F)F)ccc34)C2)C1 (stereo partly drawn) [Example 314, N-((aR)-6-((3-carbamoylpyridin-2-yl)oxy)spiro[3.3]heptan-2-yl)-6-(3,3,3-trifluoro-2-hydroxypropoxy)pyrazolo[1,5-a]pyridine-3-carboxamide]",< 5
7,"NC(=O)c1cccnc1O[C@H]1CC2(C[C@H](NC(=O)c3cnc4cc(N5CCC(F)(F)C5)ccn34)C2)C1 (stereo partly drawn) [Example 323, N-((aR)-6-((3-carbamoylpyridin-2-yl)oxy)spiro[3.3]heptan-2-yl)-7-(3,3-difluoropyrrolidin-1-yl)imidazo[1,2-a]pyridine-3-carboxamide]",< 5
8,"CC(C)(O)COc1ccc2c(C(=O)NC3CC4(C3)CC(Oc3cc(-c5cccc(CO)c5)ccc3C(N)=O)C4)cnn2c1 (centres unmarked) [Example 247, N-(6-((4-carbamoyl-3′-(hydroxymethyl)-[1,1′-biphenyl]-3-yl)oxy)spiro[3.3]heptan-2-yl)-6-(2-hydroxy-2-methylpropoxy)pyrazolo[1,5-a]pyridine-3-carboxamide]",< 5
9,"COc1ccc(OC2CC3(CC(NC(=O)c4cnn5c(C6CC6)c(OCC(C)(C)O)ccc45)C3)C2)c(C(N)=O)c1 (centres unmarked) [Example 213, N-(6-(2-carbamoyl-4-methoxyphenoxy)spiro[3.3]heptan-2-yl)-7-cyclopropyl-6-(2-hydroxy-2-methylpropoxy)pyrazolo[1,5-a]pyridine-3-carboxamide]",5 to 50
10,"NC(=O)c1cccnc1O[C@H]1CC2(C[C@H](NC(=O)c3nn(Cc4ccccc4)c4ccccc34)C2)C1 (stereo partly drawn) [Example 132, 1-benzyl-N-((aR)-6-((3-carbamoylpyridin-2-yl)oxy)spiro[3.3]heptan-2-yl)-1H-indazole-3-carboxamide, trifluoroacetate]",5 to 50
11,"Cn1cc(-c2ccc(C(N)=O)c(OC3CC4(CC(NC(=O)c5cnn6cc(OCC(C)(C)O)ccc56)C4)C3)c2)cn1 (centres unmarked) [Example 275, N-(6-(2-carbamoyl-5-(1-methyl-1H-pyrazol-4-yl)phenoxy)spiro[3.3]heptan-2-yl)-6-(2-hydroxy-2-methylpropoxy)pyrazolo[1,5-a]pyridine-3-carboxamide]",5 to 50
12,"NC(=O)c1cccnc1OC1CC2(CC(NC(=O)c3c[nH]c(-c4ccccc4)n3)C2)C1 [Example 390, N-[(aR)2-({6-(2-phenyl-1H-imidazole)-4-carboxamido]spiro[3.3]heptan-2-yl}oxy)nicotinamide]",250 to 2500
13,"[H][C@]1(Oc2cc(-c3cnn(C)c3)ccc2C(N)=O)C[C@@]2(C[C@H](NC(=O)c3cnn4cc(OCC(C)(C)O)ccc34)C2)C1 (single isomer, unassigned) [Example 276]",5 to 50
14,"CC(C)(O)Cn1nc(C(=O)N[C@H]2CC3(C2)C[C@H](Oc2ncccc2C(N)=O)C3)c2ccc(Br)cc21 (stereo partly drawn) [Example 81, 6-bromo-N-((aR)-6-((3-carbamoylpyridin-2-yl)oxy)spiro[3.3]heptan-2-yl)-1-(2-hydroxy-2-methylpropyl)-1H-indazole-3-carboxamdie, trifluoroacetate]",5 to 50
15,"CC(C)(O)COc1ccc2c(C(=O)N[C@H]3CC4(C3)C[C@H](Oc3cc(Br)ccc3C(N)=O)C4)cnn2c1 (stereo partly drawn) [Example 302, N-((aR)-6-(5-bromo-2-carbamoylphenoxy)spiro[3.3]heptan-2-yl)-6-(2-hydroxy-2-methylpropoxy)pyrazolo[1,5-a]pyridine-3-carboxamide]",< 5
16,"NC(=O)c1cccnc1O[C@H]1CC2(C[C@H](NC(=O)c3cnc4ccccc4c3)C2)C1 (stereo partly drawn) [Example 72, N-((aR)-6-((3-carbamoylpyridin-2-yl)oxy)spiro[3.3]-heptan-2-yl)quinoline-3-carboxamide, trifluoroacetate]",5 to 50
17,"NC(=O)c1cccnc1O[C@H]1CC2(C[C@H](NC(=O)c3cc(S(N)(=O)=O)c(F)cc3Cl)C2)C1 (stereo partly drawn) [Example 148, 2-(((aR)-6-(2-chloro-4-fluoro-5-sulfamoylbenzamido)spiro[3.3]heptan-2-yl)oxy) nicotinamide, trifluoroacetate]",50 to 250
18,"Cc1nc(-c2ccc(C(F)(F)F)cc2)sc1-c1cc(C#N)cc(C(=O)N[C@H]2CC3(C2)C[C@H](Oc2ncccc2C(N)=O)C3)c1 (stereo partly drawn) [Example 188, 2-((aR)-6-(3-cyano-5-(4-methyl-2-(4-(trifluoromethyl)phenyl)thiazol-5-yl)benzamido)spiro[3.3]heptan-2-yl)oxy)nicotinamide, trifluoroacetate]",250 to 2500
19,"CC(F)(F)COc1ccc2c(C(=O)N[C@H]3CC4(C3)C[C@H](Oc3ncccc3C(N)=O)C4)cnn2c1C1CC1 (stereo partly drawn) [Example 309, N-((aR)-6-((3-carbamoylpyridin-2-yl)oxy)spiro[3.3]heptan-2-yl)-7-cyclopropyl-6-(2,2-difluoropropoxy)pyrazolo[1,5-a]pyridine-3-carboxamide]",< 5
20,"CC(C)(O)COc1ccc2c(C(=O)NC3CC4(C3)CC(Oc3cc(-c5cc(F)cc(C#N)c5)ccc3C(N)=O)C4)cnn2c1 (centres unmarked) [Example 253, N-(6-((4-carbamoyl-3′-cyano-5′-fluoro-[1,1′-biphenyl]-3-yl)oxy)spiro[3.3]heptan-2-yl)-6-(2-hydroxy-2-methylpropoxy)pyrazolo[1,5-a]pyridine-3-carboxamide]",5 to 50
21,"CC(C)(O)COc1ccc2c(C(=O)NC3CC4(C3)CC(Oc3cc(-c5cc(CO)cc(CO)c5)ccc3C(N)=O)C4)cnn2c1 (centres unmarked) [Example 258, N-(6-((4-carbamoyl-3′,5′-bis(hydroxymethyl)-[1,1′-biphenyl]-3-yl)oxy)spiro[3.3]heptan-2-yl)-6-(2-hydroxy-2-methylpropoxy)pyrazolo[1,5-a]pyridine-3-carboxamide]",< 5
22,"CC(C)(O)COc1ccc2c(C(=O)NC3CC4(C3)CC(Oc3cc(C5CNC5)ccc3C(N)=O)C4)cnn2c1 (centres unmarked) [Example 226, N-(6-(5-(azetidin-3-yl)-2-carbamoylphenoxy)spiro[3.3]heptan-2-yl)-6-(2-hydroxy-2-methylpropoxy)pyrazolo[1,5-a]pyridine-3-carboxamide]",50 to 250
23,"NC(=O)c1cccnc1OC1CC2(CC(NC(=O)c3cnn4cc(OCCC(F)(F)F)ccc34)C2)C1 (centres unmarked) [Example 10, N-(6-((3-carbamoylpyridin-2-yl)oxy)spiro[3.3]heptan-2-yl)-6-(3,3,3-trifluoropropoxy)pyrazolo[1,5-a]pyridine-3-carboxamide]",5 to 50
24,"CC(F)(F)COc1ccc2c(C(=O)N[C@H]3CC4(C3)C[C@H](Oc3ncccc3C(N)=O)C4)cnn2c1-c1cn[nH]c1 (stereo partly drawn) [Example 310, N-((aR)-6-((3-carbamoylpyridin-2-yl)oxy)spiro[3.3]heptan-2-yl)-6-(2,2-difluoropropoxy)-7-(1H-pyrazol-4-yl)pyrazolo[1,5-a]pyridine-3-carboxamide]",< 5
25,"Cc1nc2cc(-c3cc(C#N)cc(C(=O)N[C@H]4CC5(C4)C[C@H](Oc4ncccc4C(N)=O)C5)c3)ccc2s1 (stereo partly drawn) [Example 186, 2-(((aR)-6-(3-cyano-5-(2-methylbenzo[d]thiazol-5-yl)benzamido)spiro[3.3]heptan-2-yl)oxy)nicotinamide, trifluoroacetate]",< 5

# Same assay, conditions: read-out: ROCK2 Activity (ROCK2 IC50); 5 μM ATP, 1.5 μM peptide substrate, pH 7.5
row,Compound,IC50 [nM]
1,"CC1(O)CCN(c2cc(C(=O)NC3CC4(C3)CC(Oc3ncccc3C(N)=O)C4)cc(C(F)(F)F)c2)CC1 [Example 450, 2-(((aR)-6-(3-(4-hydroxy-4-methylpiperidin-1-yl)-5-(trifluoromethyl)benzamido)spiro[3.3]heptan-2-yl)oxy)nicotinamide]",5 to 50
2,"Cn1cc(-c2cc(C(=O)NC3CC4(C3)CC(Oc3ncccc3C(N)=O)C4)cc(C(F)(F)F)c2)c(C(F)(F)F)n1 [Example 447, 2-(((aR)-6-(3-(1-methyl-3-(trifluoromethyl)-1H-pyrazol-4-yl)-5-(trifluoromethyl)benzamido)spiro[3.3]heptan-2-yl)oxy)nicotinamide]",5 to 50
3,"2-((aR)-6- (1-methyl-3- (trifluoromethyl)- 1H-pyrazole- 5-carboxamido) spiro[3.3]heptan- 2-yl)oxy) nicotinamide, trifluoroacetate [Example 86]",50 to 250
4,"CC(C)(O)CNc1ccc2c(C(=O)NC3CC4(C3)CC(Oc3ncccc3C(N)=O)C4)nc(C(F)F)n2c1 [Example 442, N-((aR)-6-((3-carbamoylpyridin-2-yl)oxy)spiro[3.3]heptan-2-yl)-3-(difluoromethyl)-6-((2-hydroxy-2-methylpropyl)amino)imidazo[1,5-a]pyridine-1-carboxamide]",250 to 2500
